Test results: article PMC7546004, “Targeting BCL10 by small peptides for the treatment of B cell lymphoma” (Theranostics, 2020)
Like-named read-outs stand apart in the source and are kept apart here. Square brackets hold non-standard residues; d marks the D form. Ends that are not written are not given here. Peptide text beside a SMILES is read from it. * marks the point of attachment. Cbz = O=C(OCc1ccccc1)*

Columns and labels:
BCL10 [1] = target: T1, BCL10 (Homo sapiens, UniProt O95999); test: Western blot of BCL10 protein level in DLBCL cells; assay type: cell-based; set-up: Western blot of BCL10 in cells treated with different concentrations of BCL10-P4 for 8 h; endogenous in cells; host or cells: HBL1, TMD8, OCI-LY1 DLBCL cells; conditions: HBL1 cells, BCL10-P4 1 h pretreatment, then MG132 or chloroquine 3 h; Figure 4H
T1 sequence (O95999 1-233): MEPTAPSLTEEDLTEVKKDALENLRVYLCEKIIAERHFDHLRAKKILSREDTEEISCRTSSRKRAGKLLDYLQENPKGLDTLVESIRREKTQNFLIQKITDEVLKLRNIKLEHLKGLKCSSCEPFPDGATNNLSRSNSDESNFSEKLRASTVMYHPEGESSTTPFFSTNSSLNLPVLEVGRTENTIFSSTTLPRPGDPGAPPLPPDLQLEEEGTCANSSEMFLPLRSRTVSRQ
Description: Cell pellets were lysed in RIPA buffer (50 mM Tris at pH 8.0, 150 mM NaCl, 1% NP-40, 1 mM EDTA, and 1X protease inhibitor cocktail) or RIPA buffer containing 0.1% SDS. Equal amounts of protein extracts were separated by SDS-PAGE and blotted onto polyvinylidene difluoride (PVDF) membranes.

TMD8 cells = assay type: cell-based, human
From the text: (§1) GraphPad Prism software was used to determine GI50 values.

DLBCL cell lines = assay type: cell-based
From the text: as §1

[2] = system: ABC-DLBCL cells (HBL1 and TMD8 cell lines); assay type: cell-based; conditions: 72 h
From the text: as §1

HBL1 cells [3] = assay type: cell-based
From the text: as §1

HBL1 cells [4] = test: Intracellular pharmacokinetics, BCL10-P4 versus DRI-BCL10-P4; conditions: Figure 6B and S7A; western blot
Description: MBP-Bcl10 was expressed and purified as previously described {Qiao, 2013 #85}. Purified
mM NaCl, 1% NP-40) at 4 °C for 1 hour, followed by addition of 5% BSA blocked S t re ptavidin (SAV)
Immunoprecipitant were washed 5 times with IP buffer and separated by SDS-PA G E . […]
(§2) hActin- F: 5’-[…]-3’
(§3) hIL6-R: 5’- […]-3 ’.
(§4) hBcl10-F: 5’-[…] TAGAAA-3’
(§5) hBcl10-R: 5’-[…] T-3’
(§6) 1x105 HBL1, TMD8, OCl-LY 1 , OCl-LY 1 , U2932, MD901 or RCK8 cells were seeded in 12-well plate
(§7) wa sh e d and lysed with RIPA buffer.
(§8) immunoblotting with Streptavidin (Cell signaling, cat. #3999S). […]

Jurkat cells = test: Growth inhibition; assay type: cell-based; conditions: Figure S3E; exposure time not given
From the text: as §1

[5] = system: HBL1, TMD8 and OCI-LY1 cells; test: Intracellular pharmacokinetics of biotinylated BCL10-P4 (streptavidin blot); assay type: in vitro ADME
Description: as §2, §3, §4, §5, §6, §7, §8

293T = test: Growth inhibition, noncancerous cell line; assay type: cell-based
From the text: as §1

BPH-1 = test: Growth inhibition, noncancerous cell line; assay type: cell-based
From the text: as §1

BCL10 [6] = target: T1, BCL10; test: In vitro BCL10 filamentation assay (negative-stain electron microscopy); assay type: biochemical; conditions: MBP-BCL10 and peptide premixed at 1:1 or 1:2 molar ratio, RT 30 min, then TEV cleavage
Description: MBP-BCL10 was expressed and purified as previously described. MBP-BCL10 and BCL10 peptide inhibitors were premixed at a 1:1 or 1:2 molar ratio at RT for 30 minutes before adding TEV to cleave the MBP tag. 5 μL of reaction mixture was applied to copper grids (Beijing Zhongjingkeyi Technology Co., Cat. No. BZ10024a), where it remained for 1 minute and was then negatively stained with 3% uranyl acetate for 1 minute, air-dried and imaged with a JEM-1230 TEM at 100 keV.

[7] = system: NF-κB target genes in TMD8 cells; test: RNA-seq gene set enrichment analysis of NF-κB target genes; assay type: cell-based; conditions: BCL10-P4 5 μM, ibrutinib 10 nM, 8 h and 24 h, duplicate
Description: 1:100 dilution for 15 min at room temperature in the dark. Signals from FL1 and FL3 channels were collected by MACSQuant analyzer and data were analyzed using FloJo (Ashland, OR). Early apoptosis was defined as AnnexinV+/PI-, and late apoptosis as AnnexinV+/PI+. Percentage of apoptotic cells were the sum of early and late apoptotic cells.
For cell cycle analysis, cells were washed twice with cold PBS and fixed in 70% ethanol overnight at 4°C. Fixed cells were collected at 1800 rpm for 10 min and stained with PBS containing PI and DNase-free RNase A (Sigma-Aldrich) for 1h at room temperature in the dark. DNA content was measured by BD LSRII flow cytometer and data were analyzed in FloJo. […]
All extracts were treated with DNase in column during RNA purification. RNA integrity was determined on an Agilent 2100 Bioanalyzer (Agilent Technologies, SantaClara, CA). […]
RNAseq raw data are analyzed with the Salmon software 30 using default settings. Log2Fold changes and P values of differentiation gene expression between different samples are calculated using the Bioconductor - DESeq2 R package 31 using default settings. […]
Six-week-old female NOD prkdc-/- IL-2Rg-/- (NCG) mice purchased from GemPharmatech Co., Lt d we re raised in a SPF- level Laboratory Animal Room. […] Tumor volumes were monitored by a digital caliper every other day and calculated using the formula: (smallest diameter2 x largest diameter)/2. […]

SUDHL6 = assay type: cell-based, human; conditions: 24 h
From the text: as §1

OCI-LY3 = assay type: cell-based; conditions: 24 h
From the text: as §1

SUDHL4 = assay type: cell-based; conditions: 24 h
From the text: as §1

KARPAS422 = assay type: cell-based; conditions: 24 h
From the text: as §1

RCK8 = assay type: cell-based; conditions: 24 h
From the text: as §1

[8] = 5 μM biotinylated BCL10-P4, cell lysate blotted with streptavidin
[9] = noncancerous cell line, Figure S2C

With `CC(C)C[C@@H](C=O)NC(=O)[C@H](CC(C)C)NC(=O)[C@H](CC(C)C)NC(=O)OCc1ccccc1` [MG132] (Cbz-Leu-Leu-Leu-aldehyde) the “BCL10 degradation by BCL10-P4 with proteasome or autophagy inhibitor” value (BCL10 [1]) was “negligibly prevented BCL10 degradation”.
With “DRQIKIWFQNRRMKWKKRTSSRKRAGKLLDYLQE [BCL10-P4]” the GI50 (TMD8 cells; 72 h, Figure 2B, mean ± SD of three independent experiments, read-out: GI50 TMD8) was 4.7 ± 1.8 µM, the GI50 (DLBCL cell lines; only exception U2932, read-out: GI50 values on most ABC-DLBCL cell lines) was < 10 µM and the GI50 ([2]; text summary of Figure 2A-B, read-out: GI50 in the HBL1 and TMD8 cells) was 3 to 6 µM. For the same compound, the GI50 (HBL1 cells [3]; 72 h, Figure 2B, mean ± SD of three independent experiments, read-out: GI50 HBL1) was 4.2 ± 1 µM, the “intracellular level after the first 4 h (intracellular stability)” value (HBL1 cells [4]) was “decreased rapidly thereafter” and the “uptake by HBL1 cells and level within the first 4 h” value (HBL1 cells [4]) was “similarly taken up”. For the same compound, the GI50 (Jurkat cells) was 10.3 ± 2.29 µM, the “cellular uptake (entry into cells)” value ([5]; 5 μM biotinylated BCL10-P4, 1-24 h, cell lysate blotted with streptavidin) was “comparable efficiency” and the “time of disappearance from cells” value [5, 8] was “approximately 24 h”. For the same compound, the “time of peak intracellular level” value [5, 8] was 1 to 2 h, the “growth inhibition effect on 293T” value (293T; [9]) was “neither BCL10-P2 nor BCL10-P4 displayed a growth inhibition effect” and the “growth inhibition effect on BPH-1” value (BPH-1; [9]) was “neither BCL10-P2 nor BCL10-P4 displayed a growth inhibition effect”.
In the case of `CC[C@@H](C)[C@@H](NC(=O)[C@@H](CC(C)C)NC(=O)[C@@H](CO)NC(=O)[C@H](N)CCCNC(=N)N)C(=O)N[C@H](CCCCN)C(=O)N[C@H](CCCCN)C(=O)N[C@H](C)C(=O)N[C@H](CCCNC(=N)N)C(=O)N[C@H](CC(C)C)C(=O)N[C@H](Cc1c[nH]cn1)C(=O)N[C@H](CC(=O)O)C(=O)N[C@H](Cc1ccccc1)C(=O)N[C@H](Cc1c[nH]cn1)C(=O)N[C@H](CCCNC(=N)N)C(=O)N[C@H](CCCCN)C(=O)N[C@H](CCCCN)C(=O)N[C@H](Cc1c[nH]c2ccccc12)C(=O)N[C@H](CCCCN)C(=O)N[C@H](CCSC)C(=O)N[C@H](CCCNC(=N)N)C(=O)N[C@H](CCCNC(=N)N)C(=O)N[C@H](CC(N)=O)C(=O)N[C@H](CCC(N)=O)C(=O)N[C@H](Cc1ccccc1)C(=O)N[C@H](Cc1c[nH]c2ccccc12)C(=O)N[C@@H](C(=O)N[C@H](CCCCN)C(=O)N[C@@H](C(=O)N[C@H](CCC(N)=O)C(=O)N[C@H](CCCNC(=N)N)C(=O)N[C@H](CC(=O)O)C(=O)O)[C@H](C)CC)[C@H](C)CC` [DRI-BCL10-P2] (H-[dR][dS][dL][dI][dK][dK][dA][dR][dL][dH][dD][dF][dH][dR][dK][dK][dW][dK][dM][dR][dR][dN][dQ][dF][dW][dI][dK][dI][dQ][dR][dD]-OH; N-terminus and C-terminus assumed), the GI50 (TMD8 cells) is reported as 13.6 ± 2.3 µM, the “BCL10 filament formation (EM)” value (BCL10 [6]) is reported as “inhibited Bc10 filament formation in vitro” and the GI50 (HBL1 cells [3]) is reported as 7.64 ± 3.5 µM.
For `C=CC(=O)N1CCC[C@@H](n2nc(-c3ccc(Oc4ccccc4)cc3)c3c(N)ncnc32)C1` [ibrutinib], the “expression of NF-κB target genes (GSEA)” value [7] was “comparable to the effect of ibrutinib treatment”.
In the case of “DRQIKIWFQNRRMKWKKKGLDTLVESIRREKTQ [BCL10-P5]”, the GI50 (TMD8 cells; 72 h) is reported as 49 ± 33.9 µM and the GI50 (HBL1 cells [3]; 72 h) is reported as 66.5 ± 9.2 µM.
In the case of `CCN(CC)CCCC(C)Nc1ccnc2cc(Cl)ccc12` (centres unmarked) [CHL, chloroquine], the “BCL10 degradation by BCL10-P4 with proteasome or autophagy inhibitor” value (BCL10 [1]) is reported as “prevented BCL10 degradation by BCL10-P4”.
For “DRQIKIWFQNRRMKWKKRHFDHLRAKKILSR [BCL10-P2]”, the GI50 (SUDHL6) was 5.42 ± 3.09 µM, the GI50 (TMD8 cells; 72 h) was 3.35 ± 1.1 µM and the GI50 (OCI-LY3) was 5.51 ± 0.9 µM. For the same compound, the GI50 (DLBCL cell lines) was < 10 µM, the GI50 [2] was 3 to 6 µM and the GI50 (HBL1 cells [3]; 72 h) was 5.1 ± 0.8 µM. The GI50 (SUDHL4) was 2.56 ± 0.23 µM, the GI50 (KARPAS422) was 5.39 ± 0.2 µM and the GI50 (RCK8) was 16 ± 12.3 µM. The “growth inhibition effect on 293T” value (293T) was “neither BCL10-P2 nor BCL10-P4 displayed a growth inhibition effect” and the “growth inhibition effect on BPH-1” value (BPH-1) was “neither BCL10-P2 nor BCL10-P4 displayed a growth inhibition effect”.
DRQIKIWFQNRRMKWKKEKIIAERHF [BCL10-P1] was tested, and the GI50 (HBL1 cells [3]; 72 h) was 53.9 ± 10.3 µM.
